Results taken from US5336684A, “Oxidation products of cephalomannine” (Hauser Chemical Research, Inc., priority 1993, dated 1994).
Values after ≈ are worked out from the molar mass of the structure shown. Values joined by “and” are separate entries in the source; they are usually repeats but may differ in a detail not shown here. Equal entries are not always repeated. Where two headings read alike, the source gives them in different places.

Assays:
Tubulin [1] = assay: Tubulin Assembly; assay type: biochemical, bovine; settings: for Tubulin Assembly ED50/ED50 Taxol: ratio to taxol, <1 indicates greater activity than taxol; for Tubulin Assembly ED50 (concentration which reduces the supernatant protein concentration by 50%): tubulin 1 mg/ml, 37° C., 15 minutes, PEM buffer pH 6.9
Text: (§1) Tubulin binding and cytotoxicity data for cephalomannine and the synthetic derivatives described herein are included for comparison. The tubulin testing was done exactly as described by Himes (Georg, G. I., et al., "Synthesis of Biologically Active Taxol Analogues with Modified Phenylisoserine Side Chains", J. Med. Chem. Vol 35:4230, (1992)), incorporated herein by reference. Taxol has been included in Table 1 for reference. […] A number less than 1 in these columns indicates greater activity than taxol. A number greater than 1 in these columns indicates lower activity than taxol. The error in the tests appears to be ±10-20%. […] These tests have been used and relied upon by experimentalists in this field to determine the potential efficacy of a taxol derivative for the treatment of cancer.
Tubulin free of microtubule-associated proteins was purified from bovine brain as previously described (Algaier, J., Himes, R. H., "The Effect of Dimethyl Sulfoxide on the Kinetics of Tubulin Assembly" Biochim. Biophys. Acta, Vol 954, pp 235-243, 1988). The assembly reaction was done at 37° C. in PEM buffer (0.1M Pipes, pH 6.9, 1 mM EGTA, and 1 mM MgSO4) at a protein concentration of 1 mg/ml (10 μM) in the presence of taxol or taxol analogues and 0.5 mM GTP. The reaction was monitored by the increase in the apparent absorbance at 350 nm.
^b Tubulin at 1 mg/ml was incubated with various concentrations of th
compounds at 37° C. for 15 minutes in 0.5 ml of PEM buffer (0.1 M
Pipes, 1 mM EGTA, 1 mM MgSO4, pH 6.9). Samples were centrifuged and
the protein concentration on the supernatant was determined.
^d The concentration in ng/ml which reduces the supernatant protein

B16 Melanoma cells = assay: cells; assay type: cell-based; settings: for IC50: Mus musculus; for B16 Proliferation ED50/ED50 Taxol: ratio to taxol, <1 indicates greater activity than taxol
Text: as §1
Cells were seeded in 24-well plates at 7.5×10^4 cells/well and grown in Dulbecco's modified minimal essential medium (MEM) containing 10% bovine calf serum at 37° C. for 24 hours in a 97% humidified atmosphere of 5.5% CO2. The medium was then replaced with fresh medium containing taxol or its derivatives and dissolved in DMSO in concentrations ranging from 7.5×10^-9 M to 1×10^-7 M for taxol and other derivatives. The final concentration of DMSO in the cell medium was 0.5% or less. […] After 40 hours, the cells were released by trypsinization and counted in a Coulter counter.
^c B16 Melanoma cells were incubated with various concentrations of
the compounds for about 40h at 37° C.
^e The concentration in ng/ml which reduces the number of cells by 50

tubulin [2] = settings: Schiff et al. 1979; cited from earlier work
cell = settings: when delivered to the cell; cited from earlier work
tubulin [3] = settings: compared with taxol, cited from earlier work
[4] = system: mouse macrophage-like J774.2 cells; settings: compared with taxol; cited from earlier work
[5] = system: P388 murine leukemia cells; settings: compared with taxol; cited from earlier work
[6] = system: taxol resistant tumor cells; settings: compared with taxol; cited from earlier work
[7] = B16, 40 h, B16 melanoma cells, about 40h at 37° C., read-out: B16 Proliferation ED50 (concentration which reduces the number of cells by 50% compared to a control)

Structure (SMILES) | Tubulin Assembly ED50/ED50 Taxol (Tubulin [1]) | Tubulin Assembly ED50 (concentration which reduces the supernatant protein concentration by 50%) (Tubulin [1]) [mg/L] | IC50 (B16 Melanoma cells; [7]) [mg/L] | B16 Proliferation ED50/ED50 Taxol (B16 Melanoma cells) | other results
CC(=O)O[C@H]1C(=O)[C@]2(C)[C@@H](OC(C)=O)C[C@H]3OC[C@@]3(OC(C)=O)[C@H]2[C@H](OC(=O)c2ccccc2)[C@]2(O)C[C@H](OC(=O)[C@H](OC(C)=O)[C@@H](NC(=O)C(C)=O)c3ccccc3)C(C)=C1C2(C)C [Compound 6, 2',7-bis(acetyl)-α-ketoamide] | > 10 | > 8.54 | > 0.854 | > 38 | 
CC[Si](CC)(CC)O[C@H]1C[C@H]2OC[C@@]2(OC(C)=O)[C@H]2[C@H](OC(=O)c3ccccc3)[C@]3(O)C[C@H](OC(=O)[C@H](O[Si](CC)(CC)CC)[C@@H](NC(=O)C(C)=O)c4ccccc4)C(C)=C([C@@H](OC(C)=O)C(=O)[C@]12C)C3(C)C [Compound 7, 2',7-Bis(triethylsilyl)-α-ketoamide] | > 10 | > 8.54 | > 8.54 | > 380 | 
CC(=O)O[C@H]1C(=O)[C@@]2(C)[C@H]([C@H](OC(=O)c3ccccc3)[C@]3(O)C[C@H](OC(=O)[C@H](OC(C)=O)[C@@H](NC(=O)C(C)=O)c4ccccc4)C(C)=C1C3(C)C)[C@]1(OC(C)=O)CO[C@@H]1C[C@@H]2O [Compound 5, 240 -Acetyl-α-ketoamide] | > 10 | > 8.54 |  | > 38 | IC50 (B16 Melanoma cells; B16 melanoma cells, about 40h at 37° C., read-out: B16 Proliferation ED50 (concentration which reduces the number of cells by 50% compared to a control)): > 0.854 mg/L
CC(=O)O[C@H]1C(=O)[C@@]2(C)[C@H]([C@H](OC(=O)c3ccccc3)[C@]3(O)C[C@H](OC(=O)[C@H](O)[C@@H](NC(=O)C(C)(O)C(C)O)c4ccccc4)C(C)=C1C3(C)C)[C@]1(OC(C)=O)CO[C@@H]1C[C@@H]2O (some centres unmarked) [Compound 8, Cephalomannine diol] | 3.4 | 3.3 | > 0.854 | > 38 | 
CC(=O)O[C@H]1C(=O)[C@@]2(C)[C@H]([C@H](OC(=O)c3ccccc3)[C@]3(O)C[C@H](OC(=O)[C@H](O)[C@@H](NC(=O)c4ccccc4)c4ccccc4)C(C)=C1C3(C)C)[C@]1(OC(C)=O)CO[C@@H]1C[C@@H]2O [Compound 1, taxol, reference compound] | 1.26 |  | 0.0214 (≈ 0.0251 µM) | 0.95 | Tubulin Assembly ED50/ED50 Taxol (Tubulin [1]; listed as taxol): approximately 1; ED50 for taxol in the assembly assay (Tubulin [1]; taxol reference value for the ratios (footnotes g, h, i), 15 min): 0.854 mg/L and 0.97 mg/L and 0.85 mg/L; IC50 (B16 Melanoma cells; B16, 40 h, taxol reference value for the ratios (footnotes g, h, i), read-out: ED50 for taxol in the B16 assay): 0.0225 mg/L; ED50 for taxol in the B16 assay (B16 Melanoma cells; taxol reference value for the ratios (footnotes g, h, i), 2400 min): 0.0227 mg/L; tubulin binding (tubulin [2]): significant tubulin binding; cytotoxic activity (cell): cytotoxic activity
CC(=O)O[C@H]1C(=O)[C@@]2(C)[C@H]([C@H](OC(=O)c3ccccc3)[C@]3(O)C[C@H](OC(=O)[C@H](O)[C@@H](NC(=O)C(C)=O)c4ccccc4)C(C)=C1C3(C)C)[C@]1(OC(C)=O)CO[C@@H]1C[C@@H]2O [Compound 4ab] | 1.46 | 1.24 | 0.0171 (≈ 0.0209 µM) | 0.75 | activity in the in vitro tubulin assembly test relative to taxol (Tubulin [1]; compared to taxol): comparable to or superior to taxol; tubulin binding activity (Tubulin [1]; in vitro testing): good; activity in the B16 Proliferation test relative to taxol (B16 Melanoma cells; compared to taxol): comparable to or superior to taxol; cytotoxicity activity (B16 Melanoma cells; in vitro testing): good
C/C=C(\C)C(=O)N[C@@H](c1ccccc1)[C@@H](O)C(=O)O[C@H]1C[C@@]2(O)[C@@H](OC(=O)c3ccccc3)[C@@H]3[C@]4(OC(C)=O)CO[C@@H]4C[C@H](O)[C@@]3(C)C(=O)[C@H](OC(C)=O)C(=C1C)C2(C)C [Compound 3, cephalomannine] | 0.82 |  |  | 1.49 | IC50 (B16 Melanoma cells; B16, 40 h, read-out: B16 Proliferation ED50 (concentration which reduces the number of cells by 50% compared to a control)): 0.0335 mg/L (≈ 0.0403 µM)
CC(=O)O[C@@]12CO[C@@H]1C[C@H](O)[C@@]1(C)C(=O)[C@H](O)C3=C(C)[C@@H](OC(=O)[C@H](O)[C@@H](NC(=O)OC(C)(C)C)c4ccccc4)C[C@@](O)([C@@H](OC(=O)c4ccccc4)[C@H]21)C3(C)C [Compound 2, taxotere] |  |  |  |  | activity as a promoter of tubulin polymerization vs taxol (tubulin [3]): slightly more active; in vitro tubulin binding activity of taxotere (tubulin [3]; in vitro): enhanced in vitro tubulin binding activity; potency as an inhibitor of replication vs taxol, J774.2 cells [4]: 1.5 fold; potency as an inhibitor of replication vs taxol, P388 cells [5]: 1.5 fold; potency in taxol resistant tumor cells vs taxol [6]: at least fivefold more potent
